In ChEMBL document CHEMBL1275296, “Synthesis and antimicrobial studies of thiazolotriazinones” (2010):
Values after ≈ are worked out from the molar mass of the structure shown. Active and inactive are the calls of the source. No cut-off for these calls is given here.

What was measured:
Aspergillus flavus [1] = assay: Antifungal activity against Aspergillus flavus by measuring inhibition zone after 48 hrs; assay type: functional
Staphylococcus aureus [2] = assay: Antibacterial activity against Staphylococcus aureus after 24 hrs by broth dilution method; assay type: functional
Escherichia coli [3] = assay: Antibacterial activity against Escherichia coli after 24 hrs by broth dilution method; assay type: functional
Aspergillus flavus [4] = assay: Antifungal activity against Aspergillus flavus after 48 hrs; assay type: functional
[5] = test system: Trichophyton mentagrophytes; assay: Antifungal activity against Trichophyton mentagrophytes by measuring inhibition zone after 48 hrs; assay type: functional
[6] = test system: Trichophyton mentagrophytes; assay: Antifungal activity against Trichophyton mentagrophytes after 48 hrs; assay type: functional
Talaromyces marneffei [7] = assay: Antifungal activity against Penicillium marneffei by measuring inhibition zone after 48 hrs; assay type: functional
Talaromyces marneffei [8] = assay: Antifungal activity against Penicillium marneffei after 48 hrs; assay type: functional
Candida albicans [9] = assay: Antifungal activity against Candida albicans by measuring inhibition zone after 48 hrs; assay type: functional
Candida albicans [10] = assay: Antifungal activity against Candida albicans after 48 hrs; assay type: functional
Aspergillus fumigatus [11] = assay: Antifungal activity against Aspergillus fumigatus by measuring inhibition zone after 48 hrs; assay type: functional
Aspergillus fumigatus [12] = assay: Antifungal activity against Aspergillus fumigatus after 48 hrs; assay type: functional
Pseudomonas aeruginosa [13] = assay: Antibacterial activity against Pseudomonas aeruginosa after 24 hrs by broth dilution method; assay type: functional
Klebsiella pneumoniae [14] = assay: Antibacterial activity against Klebsiella pneumoniae after 24 hrs by broth dilution method; assay type: functional
Streptococcus pyogenes [15] = assay: Antibacterial activity against Streptococcus pyogenes after 24 hrs by broth dilution method; assay type: functional
Staphylococcus aureus [16] = assay: Antibacterial activity against Staphylococcus aureus after 24 hrs; assay type: functional
Escherichia coli [17] = assay: Antibacterial activity against Escherichia coli after 24 hrs; assay type: functional
Pseudomonas aeruginosa [18] = assay: Antibacterial activity against Pseudomonas aeruginosa after 24 hrs; assay type: functional
Klebsiella pneumoniae [19] = assay: Antibacterial activity against Klebsiella pneumoniae after 24 hrs; assay type: functional
Streptococcus pyogenes [20] = assay: Antibacterial activity against Streptococcus pyogenes after 24 hrs; assay type: functional
Talaromyces marneffei [21] = assay: Antifungal activity against Penicillium marneffei at >100 ug/mL after 48 hrs; assay type: functional, organism-based
Aspergillus fumigatus [22] = assay: Antifungal activity against Aspergillus fumigatus at >100 ug/mL after 48 hrs; assay type: functional, organism-based
Escherichia coli [23] = assay: Antibacterial activity against Escherichia coli at >100 ug/mL after 24 hrs by broth dilution method; assay type: functional, organism-based
Aspergillus flavus [24] = assay: Antifungal activity against Aspergillus flavus at >100 ug/mL after 48 hrs; assay type: functional, organism-based
Klebsiella pneumoniae [25] = assay: Antibacterial activity against Klebsiella pneumoniae at >100 ug/mL after 24 hrs by broth dilution method; assay type: functional, organism-based
[26] = test system: Trichophyton mentagrophytes; assay: Antifungal activity against Trichophyton mentagrophytes at >100 ug/mL after 48 hrs; assay type: functional, organism-based
Candida albicans [27] = assay: Antifungal activity against Candida albicans at >100 ug/mL after 48 hrs; assay type: functional, organism-based
Pseudomonas aeruginosa [28] = assay: Antibacterial activity against Pseudomonas aeruginosa at >100 ug/mL after 24 hrs by broth dilution method; assay type: functional, organism-based

Compound | inhibition zone (IZ) (Aspergillus flavus [1]) [mm] | MIC (Staphylococcus aureus [2]) [µg/mL] | MIC (Escherichia coli [3]) [µg/mL] | MIC (Aspergillus flavus [4]) [µg/mL] | inhibition zone (IZ) [5] [mm] | MIC [6] [µg/mL] | inhibition zone (IZ) (Talaromyces marneffei [7]) [mm] | MIC (Talaromyces marneffei [8]) [µg/mL] | inhibition zone (IZ) (Candida albicans [9]) [mm] | MIC (Candida albicans [10]) [µg/mL] | inhibition zone (IZ) (Aspergillus fumigatus [11]) [mm] | MIC (Aspergillus fumigatus [12]) [µg/mL] | MIC (Pseudomonas aeruginosa [13]) [µg/mL] | MIC (Klebsiella pneumoniae [14]) [µg/mL] | MIC (Streptococcus pyogenes [15]) [µg/mL] | inhibition zone (IZ) (Staphylococcus aureus [16]) [mm] | inhibition zone (IZ) (Escherichia coli [17]) [mm] | inhibition zone (IZ) (Pseudomonas aeruginosa [18]) [mm] | inhibition zone (IZ) (Klebsiella pneumoniae [19]) [mm] | inhibition zone (IZ) (Streptococcus pyogenes [20]) [mm] | further results
O=c1c(Cc2ccc(Cl)cc2Cl)nnc2scc(-c3cc(F)c(Cl)cc3Cl)n12 | 21 | 6.25 (≈ 13.2 µM) | 6.25 (≈ 13.2 µM) | 6.25 (≈ 13.2 µM) | 22 | 6.25 (≈ 13.2 µM) | 25 | 6.25 (≈ 13.2 µM) | 20 | 6.25 (≈ 13.2 µM) | 24 | 6.25 (≈ 13.2 µM) | 6.25 (≈ 13.2 µM) | 6.25 (≈ 13.2 µM) | 6.25 (≈ 13.2 µM) | 21 | 29 | 31 | 19 | 24 | 
O=c1c(Cc2ccc(Cl)cc2Cl)nnc2scc(-c3ccc(Br)cc3)n12 | 16 | 6.25 (≈ 13.4 µM) | 6.25 (≈ 13.4 µM) | 6.25 (≈ 13.4 µM) | 11 | 12.5 (≈ 26.8 µM) |  |  | 7 | 25 (≈ 53.5 µM) | 12 | 12.5 (≈ 26.8 µM) | 6.25 (≈ 13.4 µM) | 6.25 (≈ 13.4 µM) | 6.25 (≈ 13.4 µM) | 21 | 26 | 29 | 18 | 20 | inhibition (Talaromyces marneffei [21]): inactive
COc1ccc(-c2csc3nnc(Cc4ccc(Cl)cc4)c(=O)n23)cc1 | 19 | 12.5 (≈ 32.6 µM) |  | 6.25 (≈ 16.3 µM) | 14 | 12.5 (≈ 32.6 µM) | 9 | 25 (≈ 65.1 µM) | 11 | 12.5 (≈ 32.6 µM) |  |  | 12.5 (≈ 32.6 µM) | 6.25 (≈ 16.3 µM) | 25 (≈ 65.1 µM) | 12 |  | 14 | 19 | 10 | inhibition (Aspergillus fumigatus [22]): inactive; inhibition (Escherichia coli [23]): inactive
O=c1c(Cc2ccc(Cl)cc2)nnc2scc(-c3cc(F)c(Cl)cc3Cl)n12 | 18 | 6.25 (≈ 14.2 µM) | 6.25 (≈ 14.2 µM) | 6.25 (≈ 14.2 µM) | 21 | 6.25 (≈ 14.2 µM) | 25 | 6.25 (≈ 14.2 µM) | 17 | 6.25 (≈ 14.2 µM) | 25 | 6.25 (≈ 14.2 µM) | 6.25 (≈ 14.2 µM) | 6.25 (≈ 14.2 µM) | 6.25 (≈ 14.2 µM) | 21 | 27 | 29 | 18 | 24 | 
O=c1c(Cc2ccc(Cl)cc2)nnc2scc(-c3ccc([N+](=O)[O-])cc3)n12 |  | 25 (≈ 62.7 µM) | 6.25 (≈ 15.7 µM) |  | 7 | 25 (≈ 62.7 µM) | 21 | 6.25 (≈ 15.7 µM) | 18 | 6.25 (≈ 15.7 µM) | 15 | 6.25 (≈ 15.7 µM) | 25 (≈ 62.7 µM) |  | 25 (≈ 62.7 µM) | 9 | 25 | 8 |  | 9 | inhibition (Aspergillus flavus [24]): inactive; inhibition (Klebsiella pneumoniae [25]): inactive
O=c1c(Cc2ccc(Cl)cc2)nnc2scc(-c3ccc(Cl)cc3)n12 | 22 | 6.25 (≈ 16.1 µM) | 6.25 (≈ 16.1 µM) | 6.25 (≈ 16.1 µM) | 25 | 6.25 (≈ 16.1 µM) | 22 | 6.25 (≈ 16.1 µM) | 20 | 6.25 (≈ 16.1 µM) | 22 | 6.25 (≈ 16.1 µM) | 6.25 (≈ 16.1 µM) | 6.25 (≈ 16.1 µM) | 6.25 (≈ 16.1 µM) | 23 | 26 | 33 | 20 | 23 | 
O=c1c(Cc2ccc(Cl)cc2Cl)nnc2scc(-c3ccc([N+](=O)[O-])cc3)n12 | 14 | 6.25 (≈ 14.4 µM) | 12.5 (≈ 28.8 µM) | 12.5 (≈ 28.8 µM) |  |  | 10 | 12.5 (≈ 28.8 µM) |  |  |  |  | 6.25 (≈ 14.4 µM) |  | 6.25 (≈ 14.4 µM) | 20 | 15 | 27 |  | 17 | inhibition [26]: inactive; inhibition (Candida albicans [27]): inactive; inhibition (Aspergillus fumigatus [22]): inactive; inhibition (Klebsiella pneumoniae [25]): inactive
COc1ccc(-c2csc3nnc(Cc4ccc(Cl)cc4Cl)c(=O)n23)cc1 |  | 12.5 (≈ 29.9 µM) | 6.25 (≈ 14.9 µM) |  | 17 | 6.25 (≈ 14.9 µM) | 9 | 25 (≈ 59.8 µM) | 17 | 6.25 (≈ 14.9 µM) | 20 | 6.25 (≈ 14.9 µM) |  |  | 25 (≈ 59.8 µM) | 12 | 22 |  |  | 8 | inhibition (Aspergillus flavus [24]): inactive; inhibition (Pseudomonas aeruginosa [28]): inactive; inhibition (Klebsiella pneumoniae [25]): inactive
O=c1c(Cc2ccc(Cl)cc2Cl)nnc2scc(-c3ccc(Cl)cc3)n12 | 21 | 6.25 (≈ 14.8 µM) | 6.25 (≈ 14.8 µM) | 6.25 (≈ 14.8 µM) | 21 | 6.25 (≈ 14.8 µM) | 23 | 6.25 (≈ 14.8 µM) | 18 | 6.25 (≈ 14.8 µM) | 24 | 6.25 (≈ 14.8 µM) | 6.25 (≈ 14.8 µM) | 6.25 (≈ 14.8 µM) | 6.25 (≈ 14.8 µM) | 21 | 29 | 32 | 19 | 23 | 
O=C(O)c1cn(C2CC2)c2cc(N3CCNCC3)c(F)cc2c1=O [CIPROFLOXACIN] |  |  |  |  |  |  |  |  |  |  |  |  |  | 6.25 (≈ 18.9 µM) | 6.25 (≈ 18.9 µM) | 23 | 30 | 33 | 22 | 25 | 
C[C@@H]1[C@H](O)[C@@H](C)/C=C/C=C/C=C/C=C/C=C/C=C/C=C/[C@H](O[C@@H]2O[C@H](C)[C@@H](O)[C@H](N)[C@@H]2O)C[C@@H]2O[C@](O)(C[C@@H](O)C[C@@H](O)[C@H](O)CC[C@@H](O)C[C@@H](O)CC(=O)O[C@H]1C)C[C@H](O)[C@H]2C(=O)O [AMPHOTERICIN B] | 21 |  |  | 6.25 (≈ 6.76 µM) | 23 | 6.25 (≈ 6.76 µM) | 25 | 6.25 (≈ 6.76 µM) | 19 | 6.25 (≈ 6.76 µM) | 25 | 6.25 (≈ 6.76 µM) |  |  |  |  |  |  |  |  | 
O=c1c(Cc2ccc(Cl)cc2)nnc2scc(-c3ccc(Br)cc3)n12 |  | 6.25 (≈ 14.4 µM) | 25 (≈ 57.8 µM) |  | 12 | 12.5 (≈ 28.9 µM) |  |  | 17 | 6.25 (≈ 14.4 µM) | 8 | 25 (≈ 57.8 µM) | 12.5 (≈ 28.9 µM) | 6.25 (≈ 14.4 µM) | 6.25 (≈ 14.4 µM) | 23 | 9 | 14 | 19 | 21 | inhibition (Aspergillus flavus [24]): inactive; inhibition (Talaromyces marneffei [21]): inactive
